Here are results for six compounds from patent publication US5183896A, “Derivatives of 1,2,5,6-tetrahydropyridin-3-carboxaldehyde oxime” (Roussel Uclaf, priority 1990, dated 1993).

In data set [1] the test system is male mice (CD1 Charles Rivers). The data set can be described thus: Diarrheic activity, oral. The format is in vivo, mouse. The procedure: The test is carried out on male mice (CD1 Charles Rivers) weighing 25 to 30 g, which have gone without food for 6 hours. The product dissolved at 5% in methocel is administered by oral route, using a probang.
The control animals receive only the excipient.
After treatment, the animals are put separately in cages. The bottoms of the cages are covered with blotting paper and are observed at 30, 60, 120 and 180 minute intervals.
The absorbent sheets of paper are changed after each observation.
The consistency of the faeces is evaluated according to the method of Randall and Baruth (Arch. Int. Pharmacodyn. 220, 94, 1976) by following the scale of the following values:
1: slightly soft feces with or without moist ring,
2: slightly soft feces with presence of a well-defined moist circle,
3: soft feces with presence of a large moist circle,
4 feces without consistency with presence of a very large moist circle.
For each product, the dose was noted which caused diarrhoea in 50% of the animals according to the method of Miller and Tainter (Proc. Soc. Exp. Biol. Med., 57 261, 1944).

Data set [2] deals with male mice (CD1 Charles Rivers). The data set can be described thus: Duration of hypothermic action: variations in body temperature. Format: in vivo, mouse. The procedure: (§1) The test is carried out on male mice (CD1 Charles Rivers) weighing 25 to 30 g, which have gone without food for 6 hours.
(§2) The body temperature is noted using a thermocouple placed about […] inside the rectum and connected to an electrical temperature recorder.
(§3) The products are administered by oral or sub-cutaneous route and the temperatures are noted at 0 and 30 minutes, 1 hour, 2 hours and 2 and a half hours after treatment.
(§4) The degree of hypothermia is evaluated as the difference between the treated animals and the control animals and the dose necessary to reduce the body temperature by 1° C. is determined.
The duration of action of the products is determined by using doses which can reduce the temperature by 1.5° C. to 1.7° C.

Data set [3] relates to isolated ileum of a guinea pig. The experiment in a line: Test of the isolated ileum of a guinea pig (agonist contraction). The note with it: Cavia porcellus, Tyrode solution, 37° C., read-out: pD2 (negative logarithm of the dose which produces 50% of the maximum effect) (converted). Here is the method: 1Test of the isolated ileum of a guinea pig
Ileum fragments are removed from a guinea-pig killed by decapitation. The isolated ileum is placed in 10 cm^3 of Tyrode solution at 37° C. and aerated by a mixture of oxygen (95%) and carbon dioxide (5%). Contractions caused by the products are recorded using a sensor connected to a polygraph. The products under test are added, at concentrations comprised between 1.10^-3 M and 1.10^-8 M/1.
The products showing a contracturating effect are tested relative to atropine and hexamethonium in order to establish whether the activity is of "muscarinic" or "nicotinic" type.
The agonist activity is expressed in pD2 (negative logarithm of the dose which produces 50% of the maximum effect).

Data set [4] concerns male mice (CD1 Charles Rivers). The data set can be described thus: Hypothermic activity: dose reducing body temperature by 1° C. The format is in vivo. The note with it: Mus musculus, read-out: Effective dose (-1° C.). The procedure: as §1, §2, §3, §4
Data set [5] concerns male mice (CD1 Charles Rivers). The experiment in a line: Duration of hypothermic action: variations in body temperature. The note with it: 180 min. The format is in vivo, mouse.
The next data set in a line: Solubility. The format is physicochemical. To be noted: for solubility in water: H2O.
The nature of data set [6]: Acute toxicity, oral, mortality over 7 days. To be noted: mouse, in vivo, male mice. The procedure:
The test is carried out on male mice (CD1 Charles Rivers) weighing 22 to 24 g, which have gone without food for 16 hours. […] The mortality is noted over the 7 days following the treatment.

In data set [7] the test system is central cholinergic system. The note with it: cited from earlier work.
The subject of data set [8] is patients who have a memory deficiency. To be noted: intravenous route; cited from earlier work.

Read-outs that look alike come from different tables or passages of the source.

Consider `COC(=O)C1=CCCN(C)C1` [Arecoline, HBr, reference compound], for which the DE50 (dose which caused diarrhoea in 50% of the animals) in data set [1] worked out at 35 mg/kg. Moreover, the “Variation in body temperature” value in data set [2] (3.5 mg/kg, sc, 0 min) is -0.1 °C; in data set [2] (3.5 mg/kg, sc, 30 min), -1.5 °C; in data set [2] (3.5 mg/kg, sc, 60 min) it was -0.1 °C; in [2] (3.5 mg/kg, sc, 120 min), “+0.2 °C”; in data set [5] (3.5 mg/kg, sc), “+0.2 °C”. Besides, in [3], the EC50 is 126 nM. For the same compound, the ED (-1 C body temperature) in data set [4] (SC route) amounted to 3 mg/kg; in data set [4] (oral route), 190 mg/kg.

Consider `CON=CC1=CCCN(C(=O)OCC(=O)N2CCCCC2)C1` [Example 4, (1-piperidinylcarbonyl)-methyl 3-(methoxyiminomethyl)-1,2,5,6-tetrahydropyridine-1-carboxylate], for which, in “Solubility”, the “solubility in 2N HCl” value is reported as “insoluble”, the “solubility in 2N NaOH” value was “insoluble” and the solubility in water result is reported as “insoluble”.

As for `CCN(CC)C(=O)COC(=O)N1CCC=C(C=NOC)C1` [Example 2, (diethylaminocarbonyl) methyl 3-(methoxyiminomethyl)-1,2,5,6-tetrahydropyridine-1-carboxylate], in the data set “Solubility”, the “solubility in 2N HCl” value is reported as “insoluble”, the “solubility in 2N NaOH” value was “insoluble” and the solubility in water entry is “insoluble”.

In turn, `C=CCN(CC=C)C(=O)COC(=O)N1CCC=C(C=NOC)C1` [Example 3, (di(2-propenyl)-aminocarbon-yl)-methyl 3-(methoxyiminomethyl)-1,2,5,6-tetrahydropyridine-1-carboxylate] returned a DE50 (dose which caused diarrhoea in 50% of the animals) in [1] of over 50 mg/kg. Besides, in the data set “Solubility”, the “solubility in 2N HCl” value is given as “insoluble”. Also, the “solubility in 2N NaOH” value in the data set “Solubility” is reported as “insoluble”. The solubility in water entry in “Solubility” is listed as “insoluble”. This compound displayed an LD50 at 168 h in [6] of 500 mg/kg. Moreover, the “Variation in body temperature” value is -0.9 °C in data set [2] (12 mg/kg, sc, 30 min); -1.6 °C in data set [2] (12 mg/kg, sc, 60 min); -0.6 °C in data set [2] (12 mg/kg, sc, 120 min); “+0.1 °C” in [2] (15 mg/kg, os, 0 min); -1.3 °C in data set [2] (15 mg/kg, os, 30 min); -1.7 °C in data set [2] (15 mg/kg, os, 60 min). Besides, the “Variation in body temperature” value in data set [2] (15 mg/kg, os, 120 min) was -0.5 °C; in data set [5] (15 mg/kg, os) it was “+0.1 °C”. Further, in [3], the EC50 is over 100000 nM. Further, the ED (-1 C body temperature) in data set [4] (SC route) amounted to 8 mg/kg; in [4] (oral route), 9 mg/kg.

Regarding `COC(=O)C1=CCCN(C)C1` [arecoline], in data set [7] (in vivo), the duration of action entry is listed as “short-term action”. For the same compound, in data set [7] (oral route), the “activity by oral route” value is given as “very weak activity by oral route”. Further, the “effect on patients who have a memory deficiency” value in data set [8] is “positive effect”.

Turning to `CON=CC1=CCCN(C(=O)OCC(=O)N2CCN(C)CC2)C1` [Example 5, (4 methyl-1-piperazinyl)-carbonylmethyl 3-(methoxyiminomethyl)-1,2,5,6-tetrahydropyridine-1-carboxylate], in “Solubility”, the “solubility in 2N HCl” value is “soluble”, the “solubility in 2N NaOH” value is “insoluble” and the solubility in water entry is reported as “soluble”.
